What is called Papp is the rate of passage across a membrane or cell layer, normalised by area and donor concentration. The low end stands for slow passage, the high end for fast passage. The term IC50 denotes the concentration that inhibits the measured activity by half. For orientation: inhibition means the share of the control response that was lost under treatment.

These results are taken from ChEMBL document CHEMBL4052647, “Synthesis and pharmacological evaluation of novel chromone derivatives as balanced multifunctional agents against Alzheimer's disease” (Bioorg Med Chem, 2017).

SMILES strings stand for the structures. Calls of active or inactive are those of the source. The calls are words filed in the database; no cut-off is given here.

The nature of data set [1]: Metal chelating activity of the compound assessed as formation of ferric-compound complex at 50 uM after 20 mins by fluorescence emission spectral analysis.
A further data set can be described thus: physchem. The note with it: PAMPA.
Data set [2] addresses T1, Amine oxidase [flavin-containing] A (Homo sapiens, UniProt P21397).
T1 sequence (P21397 whole entry): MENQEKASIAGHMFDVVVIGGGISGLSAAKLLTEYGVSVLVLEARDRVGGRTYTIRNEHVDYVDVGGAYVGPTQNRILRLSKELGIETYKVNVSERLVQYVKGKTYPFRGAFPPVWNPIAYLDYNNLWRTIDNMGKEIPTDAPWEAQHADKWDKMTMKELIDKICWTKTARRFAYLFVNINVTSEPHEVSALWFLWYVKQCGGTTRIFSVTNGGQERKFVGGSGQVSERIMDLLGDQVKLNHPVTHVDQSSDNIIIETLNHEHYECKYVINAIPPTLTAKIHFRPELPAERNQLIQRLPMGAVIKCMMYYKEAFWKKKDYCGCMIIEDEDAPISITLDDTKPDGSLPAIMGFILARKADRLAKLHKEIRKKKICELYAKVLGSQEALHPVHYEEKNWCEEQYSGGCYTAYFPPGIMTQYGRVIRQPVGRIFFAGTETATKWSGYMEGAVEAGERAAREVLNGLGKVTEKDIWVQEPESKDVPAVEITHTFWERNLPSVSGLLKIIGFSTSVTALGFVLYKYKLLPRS
The data set can be described thus: Inhibition of recombinant human MAO-A expressed in baculovirus infected BTI insect cells using p-tyramine as substrate pretreated for 15 mins followed by substrate addition after 20 mins by Amplex red reagent based fluorimetric method.

Data set [3] in a line: Metal chelating activity of the compound assessed as formation of ferrous-compound complex at 50 uM after 20 mins by fluorescence emission spectral analysis.
A short description of data set [4]: Metal chelating activity of the compound assessed as formation of Cu2+-compound complex at 50 uM after 20 mins by fluorescence emission spectral analysis.
For data set [5], the system named is PC-12. The data set can be described thus: Neuroprotective activity against H2O2-induced cell death in rat PC12 cells assessed as increase in cell viability at 20 uM pretreated for 24 hrs followed by H2O2 induction after 24 hrs by MTT assay. Type of data set: functional, cell-based. In general terms: Formazan colour is commonly taken as a measure of viable cells.

The species entered for a further data set is Homo sapiens. The data set can be described thus: Selectivity index, ratio of IC50 for recombinant human MAO-A expressed in baculovirus infected BTI insect cells to IC50 for recombinant human MAO-B expressed in baculovirus infected BTI insect cells.
Data set [6] can be described thus: Metal chelating activity assessed as inhibition of Cu2+-induced amyloid beta (1 to 42 residues) aggregation by measuring reduction in amyloid fibrils at 50 uM […] by uranyl acetate staining based transmission electron microscopic analysis.
Data set [7] in a line: Metal chelating activity assessed as inhibition of Cu2+-induced amyloid beta (1 to 42 residues) aggregation at 50 uM after 24 hrs by thioflavin-T fluorescence assay (reference value: 142%).
Data set [8] concerns PC-12. As to the kind of experiment: Neuroprotective activity against H2O2-induced cell death in rat PC12 cells assessed as increase in cell viability at 1 to 5 uM pretreated for 24 hrs followed by H2O2 induction after 24 hrs by MTT assay. Type of data set: functional, cell-based.
Data set [9] can be described thus: Metal chelating activity of the compound assessed as formation of Cu2+-compound complex at 50 uM after 30 mins by UV-vis spectrophotometric method.
Data set [10] in a line: Metal chelating activity of the compound assessed as formation of ferrous-compound complex at 50 uM after 30 mins by UV-vis spectrophotometric method.
Data set [11] can be described thus: Metal chelating activity of the compound assessed as formation of ferric-compound complex at 50 uM after 30 mins by UV-vis spectrophotometric method.
Data set [12] concerns PC-12. The data set can be described thus: Neuroprotective activity against H2O2-induced oxidative stress in rat PC12 cells assessed as reduction in intracellular reactive oxygen species level after 24 hrs by DCFH-DA probe based flow cytometric analysis. Type of data set: functional, cell-based.
Data set [13] has as its target Amyloid-beta precursor protein (Homo sapiens) (UniProt P05067). As to the kind of experiment: Inhibition of HFIP-pretreated amyloid beta (1 to 42) (unknown origin) self-induced aggregation at 20 uM after 46 to 48 hrs by thioflavin-T fluorescence assay relative to control.
Data set [14] is described as follows: Metal chelating activity assessed as mole fraction of compound required to show 1:1 stoichiometry for Cu2+-compound complex by Job's plot method.
Data set [15] can be described thus: Metal chelating activity of the compound assessed as formation of zinc-compound complex at 50 uM after 20 mins by fluorescence emission spectral analysis.
The target in data set [16] is T2, Amine oxidase [flavin-containing] B (Homo sapiens, UniProt P27338).
T2 sequence (P27338 whole entry): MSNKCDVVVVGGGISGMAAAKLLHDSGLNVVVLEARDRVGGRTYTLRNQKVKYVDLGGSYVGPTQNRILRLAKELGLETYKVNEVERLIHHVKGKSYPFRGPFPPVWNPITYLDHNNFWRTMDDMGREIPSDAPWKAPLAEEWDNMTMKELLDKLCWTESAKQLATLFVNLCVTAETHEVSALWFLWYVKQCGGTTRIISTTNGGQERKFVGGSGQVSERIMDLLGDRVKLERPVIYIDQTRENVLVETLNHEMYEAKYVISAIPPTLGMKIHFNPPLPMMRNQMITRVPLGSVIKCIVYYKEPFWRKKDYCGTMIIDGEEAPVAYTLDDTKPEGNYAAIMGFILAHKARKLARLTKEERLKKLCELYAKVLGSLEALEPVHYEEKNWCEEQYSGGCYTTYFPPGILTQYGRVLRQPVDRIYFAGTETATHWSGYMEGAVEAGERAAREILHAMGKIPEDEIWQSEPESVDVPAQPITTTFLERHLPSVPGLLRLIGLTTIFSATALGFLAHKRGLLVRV
The data set can be described thus: biochemical. Type of data set: cell-based.
Description: Inhibition of recombinant human MAO-B expressed in baculovirus infected BTI insect cells using p-tyramine as substrate pretreated for 15 mins followed by substrate addition after 20 mins by Amplex red reagent based fluorimetric method

The subject of data set [17] is PC-12. As to the kind of experiment: Neuroprotective activity against H2O2-induced cell death in rat PC12 cells assessed as increase in cell viability at 10 uM pretreated for 24 hrs followed by H2O2 induction after 24 hrs by MTT assay. The class given is functional, cell-based.
Data set [18] deals with PC-12. As to the kind of experiment: Cytotoxicity against rat PC12 cells at 20 uM after 24 hrs by MTT assay. Type of data set: cell-based. The note with it: pc-12, 24 h.
Data set [19] can be described thus: Antioxidant activity assessed as trolox equivalent of […]-induced radical scavenging activity at 1 to 10 uM preincubated for 15 mins followed by AAPH addition measured every minute for 120 mins by ORAC fluorescein assay. The class given is functional.
Data set [20] addresses Amyloid-beta precursor protein (Homo sapiens) (UniProt P05067). As to the kind of experiment: Potency index, ratio of compound effect to curcumin effect for inhibition of HFIP-pretreated amyloid beta (1 to 42) (unknown origin) self-induced aggregation at 20 uM.

Chain of Amyloid-beta precursor protein (Homo sapiens) (P05067 whole entry): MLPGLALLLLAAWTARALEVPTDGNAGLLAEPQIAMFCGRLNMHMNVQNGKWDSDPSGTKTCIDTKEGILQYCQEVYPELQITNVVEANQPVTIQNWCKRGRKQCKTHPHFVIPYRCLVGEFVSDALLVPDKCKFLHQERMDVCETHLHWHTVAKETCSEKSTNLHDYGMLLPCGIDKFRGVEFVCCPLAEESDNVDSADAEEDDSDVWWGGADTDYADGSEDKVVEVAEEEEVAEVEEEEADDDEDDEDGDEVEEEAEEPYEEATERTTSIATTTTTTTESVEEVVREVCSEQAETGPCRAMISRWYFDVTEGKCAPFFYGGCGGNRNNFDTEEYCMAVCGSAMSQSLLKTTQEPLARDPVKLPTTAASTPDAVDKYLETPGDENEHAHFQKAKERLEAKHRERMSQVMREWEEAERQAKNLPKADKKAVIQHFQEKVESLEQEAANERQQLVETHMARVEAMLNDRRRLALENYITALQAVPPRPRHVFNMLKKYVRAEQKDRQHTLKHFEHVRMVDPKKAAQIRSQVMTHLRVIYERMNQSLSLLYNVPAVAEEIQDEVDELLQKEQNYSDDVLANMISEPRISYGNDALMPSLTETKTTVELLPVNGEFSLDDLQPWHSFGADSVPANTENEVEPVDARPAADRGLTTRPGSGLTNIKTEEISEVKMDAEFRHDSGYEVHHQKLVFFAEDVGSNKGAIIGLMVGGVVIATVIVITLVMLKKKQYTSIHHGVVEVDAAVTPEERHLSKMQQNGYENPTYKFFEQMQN

For the compound `Cc1ccc(O)c(/N=C/c2coc3ccc(C)cc3c2=O)c1`, the result (in data set [1]; in data set [3]; in data set [4]; in the data set with PC-12 [8]; in data set [9]; in [10]) was Active. Further, the outcome in data set [11] and in data set [15] was Active. Also, the Papp at 16 h in “physchem” was found to be 4.94 ×10⁻⁶ cm/s. Also, the IC50 in data set [2] amounted to 5.12 µM; in [16] it was 816 nM. In addition, the result with PC-12 [5] and in the data set with PC-12 [17] was inactive. The Ratio IC50 in the data set filed under Homo sapiens was 6.21. In addition, in [6], the inhibition entry is “Active”. The figures for the inhibition in data set [7] and in data set [13] were 60.3% and 75.1%, respectively. In addition, the Activity result in the data set on PC-12 [12] was “Dose-dependent effect”; in data set [14], 0.55 molar ratio; with PC-12 [18] it was “Non-Toxic”; in data set [19], 3.62 equiv.
In the case of `Cc1ccc(O)c(/N=C/c2coc3ccc(Br)cc3c2=O)c1`, the results for the IC50 in data set [2] and in data set [16] were 7.14 µM and 1120 nM, respectively. In the data set filed under Homo sapiens, the Ratio IC50 was 6.38. In addition, the Ratio in [20] was 1.9. For the same compound, the inhibition in data set [13] worked out at 89.5%. For the same compound, the Activity result was “Non-Toxic” in the data set on PC-12 [18] and 0.784 equiv in [19].
